Each structure is given as a SMILES string.

Consider one compound from patent US8816095B2, “Na channels, disease, and related assays and compositions” (Georgetown University, priority 2008, dated 2014).

The test system of one data set is site 2 of the VGSC. The data set is described as follows: [3H]-BTX-B displacement assay at site 2. Type of data set: binding, rat.
Another data set concerns the target T1, hERG potassium channels (Homo sapiens, UniProt Q12809).
T1 construct: expressed in transfected cells; host or cells: HEK-293 (membranes)
Kind of data set: hERG binding assay ([35S]MK-499 displacement). Conditions: [35S]MK-499, HEK-293 hERG membranes. The text has this: All four compounds were also counter-screened for human ether-a-go-go-related gene (hERG) activity against the radio-ligand MK-0499. Blockade of hERG K^+ channels is widely regarded as the predominant cause of drug-induced QT prolongation. (Aronov, A J Med Chem. 2006 Nov. 16; 49(23):6917-21).
MK-499, a potent hERG blocker, was used in a ligand binding assay to evaluate the binding of test compounds to hERG potassium channels as previously described (Wang, J et al. Am J Physiol Heart Circ Physiol, 2003, 284: H256-H267).^2 Test compounds were incubated with 0.05 nM of radiolabeled MK-499 ([35S]MK-499; specific Activity=1,279,010 μCi/μmol) in an assay buffer solution (70 mM NaCl, 60 mM KCl, 10 mM HEPES/NaOH (pH 7.4), 2 mM MgCl2, 1 mM CaCl2) also containing membranes isolated from HEK-293 cells stably expressing hERG channels in 96 well polypropylene deep-well assay plates at room temperature (25° C.) for >90 min. Assay plates were rinsed three time with buffer (130 mM NaCl, 10 mM HEPES/NaOH (pH 7.4), 2 mM MgCl2, 1 mM CaCl2) and the solution transferred to a Packard FilterMate Universal Harvester apparatus and filtered using PerkinElmer UniFilter-96 GF/C 96-well white microplates pre-soaked with 0.3% BSA (10 mL/L of 30% BSA). Plates were dried overnight at 37° C., or for 2 hrs at 56° C. The bottom of the plates were sealed and 0.025 mL of Microscint 0 was added to each well. The plates were top sealed and counted for 2 min/well in a Packard TopCount Scintillation counter. Test compounds were evaluated in a five point titration format using half-log steps from 0.3 μM to 30 μM. […] Less than 5% of the added radioactivity was retained on the filters. Assays were performed in triplicate.
On the technique in general: hERG is a cardiac potassium channel; its block is linked to QT prolongation.

T1 sequence (Q12809 whole entry): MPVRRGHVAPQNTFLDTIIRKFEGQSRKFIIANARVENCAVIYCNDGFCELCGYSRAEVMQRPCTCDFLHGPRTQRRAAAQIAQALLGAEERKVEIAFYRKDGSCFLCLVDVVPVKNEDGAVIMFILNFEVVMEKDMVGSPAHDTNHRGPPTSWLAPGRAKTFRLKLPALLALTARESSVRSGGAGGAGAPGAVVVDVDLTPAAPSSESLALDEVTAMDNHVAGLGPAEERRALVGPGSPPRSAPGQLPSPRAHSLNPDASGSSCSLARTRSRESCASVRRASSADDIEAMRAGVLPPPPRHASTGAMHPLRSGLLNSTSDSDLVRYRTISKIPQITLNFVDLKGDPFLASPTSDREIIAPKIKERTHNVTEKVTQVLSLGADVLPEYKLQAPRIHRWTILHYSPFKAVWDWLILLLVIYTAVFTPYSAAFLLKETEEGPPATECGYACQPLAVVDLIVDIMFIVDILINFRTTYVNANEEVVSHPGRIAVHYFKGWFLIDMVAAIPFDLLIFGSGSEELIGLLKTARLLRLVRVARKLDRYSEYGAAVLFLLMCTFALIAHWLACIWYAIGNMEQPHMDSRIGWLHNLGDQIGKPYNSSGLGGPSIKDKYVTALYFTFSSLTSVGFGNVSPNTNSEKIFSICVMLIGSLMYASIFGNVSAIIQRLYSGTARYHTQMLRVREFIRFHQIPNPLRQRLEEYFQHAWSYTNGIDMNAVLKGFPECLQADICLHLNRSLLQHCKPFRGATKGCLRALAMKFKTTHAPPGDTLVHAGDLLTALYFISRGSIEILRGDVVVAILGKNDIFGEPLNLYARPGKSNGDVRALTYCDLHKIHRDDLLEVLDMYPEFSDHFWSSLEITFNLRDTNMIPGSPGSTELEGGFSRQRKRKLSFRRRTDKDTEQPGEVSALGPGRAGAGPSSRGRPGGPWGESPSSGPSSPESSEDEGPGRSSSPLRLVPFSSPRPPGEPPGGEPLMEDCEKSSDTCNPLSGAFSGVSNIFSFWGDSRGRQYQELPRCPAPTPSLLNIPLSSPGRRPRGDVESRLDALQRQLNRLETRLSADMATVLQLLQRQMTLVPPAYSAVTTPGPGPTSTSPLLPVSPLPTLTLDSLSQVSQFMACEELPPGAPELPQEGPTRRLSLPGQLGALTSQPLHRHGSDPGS

On to `O=C1NC(=O)C(c2ccccc2)(c2ccccc2)N1` [DPH, Diphenylhydantoin, reference compound], for which the “% [3H]-BTX Inhibition (40 μM)” value in the data set on site 2 of the VGSC (40 μM, rat brain synaptoneurosomes, Table 9) turned out to be 30.4 ± 3.3%. Further, in the data set with site 2 of the VGSC (40 μm, rat brain synaptoneurosomes, Table 13), the “% [3H]-BTX Displacement (40 μm)” value was 27.7%. The “[3H]-BTX-B Binding Data, Displacement %” value in the data set on site 2 of the VGSC (Screen at 40 μM, 2 replicates, referenced to Aconitine) is reported as 50%. Also, the “% inhibition for hERG assay, 0.3 μM” value at hERG potassium channels (0.3 μM) is given as 9%. The “% inhibition for hERG assay, 1 μM” value at hERG potassium channels (1 μM) turned out to be 20%. For the same compound, the “% inhibition for hERG assay, 3 μM” value on hERG potassium channels (3 μM) is 28%. Moreover, the “% inhibition for hERG assay, 10 μM” value on hERG potassium channels (10 μM) was found to be 17%. For the same compound, the “% inhibition for hERG assay, 30 μM” value at hERG potassium channels (30 μM) came to 40%.
